Source: ChEMBL document CHEMBL4715697, “Synthesis and biological activity of benzamide DNA minor groove binders” (2016)

What was measured:
Type in all cases: functional
RPMI-8226 [1] = test: Growth inhibition of human RPMI-8226 cells assessed as cell growth at 0.1 uM incubated for 48 hrs by sulforhodamine B assay relative to control; settings: read-out: Activity
M14 = test: Growth inhibition of human M14 cells assessed as cell growth at 0.1 uM incubated for 48 hrs by sulforhodamine B assay relative to control; settings: read-out: Activity
DU-145 = test: Growth inhibition of human DU-145 cells incubated for 48 hrs by sulforhodamine B assay
PC-3 = test: Growth inhibition of human PC-3 cells assessed as cell growth at 0.1 uM incubated for 48 hrs by sulforhodamine B assay relative to control; settings: read-out: Activity
BT-549 = test: Growth inhibition of human BT-549 cells incubated for 48 hrs by sulforhodamine B assay
MDA-MB-231 = test: Growth inhibition of human MDA-MB-231 cells assessed as cell growth at 1 uM incubated for 48 hrs by sulforhodamine B assay relative to control; settings: read-out: Activity
SF-268 = test: Growth inhibition of human SF-268 cells assessed as cell growth at 0.1 uM incubated for 48 hrs by sulforhodamine B assay relative to control; settings: read-out: Activity
OVCAR-8 = test: Growth inhibition of human OVCAR-8 cells assessed as cell growth at 100 uM incubated for 48 hrs by sulforhodamine B assay relative to control; settings: read-out: Activity
COLO 205 = test: Growth inhibition of human COLO 205 cells assessed as cell growth at 100 uM incubated for 48 hrs by sulforhodamine B assay relative to control; settings: read-out: Activity
786-0 = test: Growth inhibition of human 786-0 cells assessed as cell growth at 1 uM incubated for 48 hrs by sulforhodamine B assay relative to control; settings: read-out: Activity
MDA-MB-468 = test: Growth inhibition of human MDA-MB-468 cells assessed as cell growth at 1 uM incubated for 48 hrs by sulforhodamine B assay relative to control; settings: read-out: Activity
A498 [2] = test: Growth inhibition of human A498 cells assessed as cell growth at 0.1 uM incubated for 48 hrs by sulforhodamine B assay relative to control; settings: read-out: Activity
IGROV-1 [3] = test: Growth inhibition of human IGROV-1 cells assessed as cell growth at 0.01 uM incubated for 48 hrs by sulforhodamine B assay relative to control; settings: read-out: Activity
K562 = test: Growth inhibition of human K562 cells incubated for 48 hrs by sulforhodamine B assay
HCT-116 = test: Growth inhibition of human HCT-116 cells incubated for 48 hrs by sulforhodamine B assay
NCI/ADR-RES = test: Growth inhibition of human NCI/ADR-RES cells assessed as cell growth at 0.01 uM incubated for 48 hrs by sulforhodamine B assay relative to control; settings: read-out: Activity
UO-31 = test: Growth inhibition of human UO-31 cells assessed as cell growth at 1 uM incubated for 48 hrs by sulforhodamine B assay relative to control; settings: read-out: Activity
NCI-H522 = test: Growth inhibition of human NCI-H522 cells incubated for 48 hrs by sulforhodamine B assay
OVCAR-5 = test: Growth inhibition of human OVCAR-5 cells assessed as cell growth at 100 uM incubated for 48 hrs by sulforhodamine B assay relative to control; settings: read-out: Activity
SK-MEL-28 = test: Growth inhibition of human SK-MEL-28 cells assessed as cell growth at 0.1 uM incubated for 48 hrs by sulforhodamine B assay relative to control; settings: read-out: Activity
RXF 393 = test: Growth inhibition of human RXF 393 cells incubated for 48 hrs by sulforhodamine B assay
HT-29 = test: Growth inhibition of human HT-29 cells assessed as cell growth at 0.01 uM incubated for 48 hrs by sulforhodamine B assay relative to control; settings: read-out: Activity
MDA-MB-435 = test: Growth inhibition of human MDA-MB-435 cells assessed as cell growth at 0.1 uM incubated for 48 hrs by sulforhodamine B assay relative to control; settings: read-out: Activity
RPMI-8226 [4] = test: Growth inhibition of human RPMI-8226 cells assessed as cell growth at 100 uM incubated for 48 hrs by sulforhodamine B assay relative to control; settings: read-out: Activity
SR [5] = test: Growth inhibition of human SR cells assessed as cell growth at 1 uM incubated for 48 hrs by sulforhodamine B assay relative to control; settings: read-out: Activity
MOLT-4 = test: Growth inhibition of human MOLT-4 cells assessed as cell growth at 0.1 uM incubated for 48 hrs by sulforhodamine B assay relative to control; settings: read-out: Activity
SR [6] = test: Growth inhibition of human SR cells assessed as cell growth at 0.01 uM incubated for 48 hrs by sulforhodamine B assay relative to control; settings: read-out: Activity
TK-10 = test: Growth inhibition of human TK-10 cells assessed as cell growth at 1 uM incubated for 48 hrs by sulforhodamine B assay relative to control; settings: read-out: Activity
A498 [7] = test: Growth inhibition of human A498 cells assessed as cell growth at 0.01 uM incubated for 48 hrs by sulforhodamine B assay relative to control; settings: read-out: Activity
IGROV-1 [8] = test: Growth inhibition of human IGROV-1 cells assessed as cell growth at 1 uM incubated for 48 hrs by sulforhodamine B assay relative to control; settings: read-out: Activity
UACC-62 = test: Growth inhibition of human UACC-62 cells assessed as cell growth at 0.01 uM incubated for 48 hrs by sulforhodamine B assay relative to control; settings: read-out: Activity
SN12C = test: Growth inhibition of human SN12C cells assessed as cell growth at 1 uM incubated for 48 hrs by sulforhodamine B assay relative to control; settings: read-out: Activity
KM12 = test: Growth inhibition of human KM12 cells incubated for 48 hrs by sulforhodamine B assay
ACHN = test: Growth inhibition of human ACHN cells assessed as cell growth at 0.01 uM incubated for 48 hrs by sulforhodamine B assay relative to control; settings: read-out: Activity
CCRF-CEM = test: Growth inhibition of human CCRF-CEM cells assessed as cell growth at 0.01 uM incubated for 48 hrs by sulforhodamine B assay relative to control; settings: read-out: Activity
[9] = read-out: LC50 (the source's name)
[10] = read-out: pLC50 (the source's name) (converted)

In the case of CC(=O)Nc1cc(CCl)cc(NC(=O)c2ccc(C(=O)Nc3cccc(NC(=O)CCCN(C)C)c3)cc2)c1, the growth at 0.1 µM (RPMI-8226 [1]) is reported as 113%, the growth at 0.1 µM (M14) is reported as 102% and the GI50 (DU-145; read-out: GI50) is reported as > 100 µM. The CC50 (DU-145; [9]) was > 100 µM, the TGI (DU-145; read-out: TGI) was > 100 µM and the GI50 (DU-145; read-out: pGI50 (converted)) was > 100 µM. For the same compound, the CC50 (DU-145; [10]) was > 100 µM, the TGI (DU-145; read-out: pTGI) was > 100 µM and the growth at 0.1 µM (PC-3) was 103%. The GI50 (BT-549; read-out: GI50) was > 100 µM, the CC50 (BT-549; [9]) was > 100 µM and the TGI (BT-549; read-out: TGI) was > 100 µM. For the same compound, the GI50 (BT-549; read-out: pGI50 (converted)) was > 100 µM, the CC50 (BT-549; [10]) was > 100 µM and the TGI (BT-549; read-out: pTGI) was > 100 µM. It also gave a growth at 1 µM (MDA-MB-231) of 104%, a growth at 0.1 µM (SF-268) of 101% and a growth at 100 µM (OVCAR-8) of 96%. It also gave a growth at 100 µM (COLO 205) of 100%, a growth at 1 µM (786-0) of 105% and a growth at 1 µM (MDA-MB-468) of 86%. The growth at 0.1 µM (A498 [2]) was 73%, the growth at 0.01 µM (IGROV-1 [3]) was 113% and the GI50 (K562; read-out: GI50) was > 100 µM. The CC50 (K562; [9]) was > 100 µM, the TGI (K562; read-out: TGI) was > 100 µM and the GI50 (K562; read-out: pGI50 (converted)) was > 100 µM. For the same compound, the CC50 (K562; [10]) was > 100 µM, the TGI (K562; read-out: pTGI) was > 100 µM and the GI50 (HCT-116; read-out: GI50) was > 100 µM. The CC50 (HCT-116; [9]) was > 100 µM, the TGI (HCT-116; read-out: TGI) was > 100 µM and the GI50 (HCT-116; read-out: pGI50 (converted)) was > 100 µM. For the same compound, the CC50 (HCT-116; [10]) was > 100 µM, the TGI (HCT-116; read-out: pTGI) was > 100 µM and the growth at 0.01 µM (NCI/ADR-RES) was 105%. For the same compound, the growth at 1 µM (UO-31) was 97%, the GI50 (NCI-H522; read-out: GI50) was > 100 µM and the CC50 (NCI-H522; [9]) was > 100 µM. The TGI (NCI-H522; read-out: TGI) was > 100 µM, the GI50 (NCI-H522; read-out: pGI50 (converted)) was > 100 µM and the CC50 (NCI-H522; [10]) was > 100 µM. The TGI (NCI-H522; read-out: pTGI) was > 100 µM, the growth at 100 µM (OVCAR-5) was 91% and the growth at 0.1 µM (SK-MEL-28) was 91%. For the same compound, the GI50 (RXF 393; read-out: GI50) was > 100 µM, the CC50 (RXF 393; [9]) was > 100 µM and the TGI (RXF 393; read-out: TGI) was > 100 µM. The GI50 (RXF 393; read-out: pGI50 (converted)) was > 100 µM, the CC50 (RXF 393; [10]) was > 100 µM and the TGI (RXF 393; read-out: pTGI) was > 100 µM. For the same compound, the growth at 0.01 µM (HT-29) was 103%, the growth at 0.1 µM (MDA-MB-435) was 93% and the growth at 100 µM (RPMI-8226 [4]) was 107%. The growth at 1 µM (SR [5]) was 118%, the growth at 0.1 µM (MOLT-4) was 95% and the growth at 0.01 µM (SR [6]) was 96%. For the same compound, the growth at 1 µM (TK-10) was 102%, the growth at 0.01 µM (A498 [7]) was 67% and the growth at 1 µM (IGROV-1 [8]) was 110%. The growth at 0.01 µM (UACC-62) was 100%, the growth at 1 µM (SN12C) was 105% and the GI50 (KM12; read-out: GI50) was > 100 µM. For the same compound, the CC50 (KM12; [9]) was > 100 µM, the TGI (KM12; read-out: TGI) was > 100 µM and the GI50 (KM12; read-out: pGI50 (converted)) was > 100 µM. For the same compound, the CC50 (KM12; [10]) was > 100 µM, the TGI (KM12; read-out: pTGI) was > 100 µM and the growth at 0.01 µM (ACHN) was 105%. For the same compound, the growth at 0.01 µM (CCRF-CEM) was 107%.
